Experimental data taken from paper PMC6093650, “Antidepressive and anxiolytic effects of ostruthin, a TREK-1 channel activator” (PLoS ONE, 2018).

Key:
[1] = test system: mice anxiety-like behavior; test: elevated plus maze; type: in vivo; conditions: amlodipine experiment: single compound vs PBS, ostruthin 5 mg/kg or amlodipine 10 mg/kg, n = 6
Source text: (§1) Male ICR mice (n = 317 in total) aged 5 weeks and weighing 32 ± 2 g were purchased from Shimizu Laboratory Supplies (Kyoto, Japan). For the social defeat stress test, we used 28 C57BL/6J mice (5 weeks old, Shimizu Laboratory Supplies) and 30 ICR mice (7–8 weeks old, Charles River Labs Japan, Yokohama, Kanagawa, Japan). Mice were maintained for at least 1 week prior to experiments. Animals were kept in groups in plastic cages. They had free access to food and water, and were kept in a 12-h light/dark cycle (08:00–20:00). Experiments were carried out between 10:00 and 18:00 in a quiet and air-conditioned experimental room, in which mice were habituated for at least 30 min before each experiment. Animal experiments were performed in accordance with the guidelines of the Physiological Society of Japan and were approved by the Committees on Animal Experiments at Kansai Medical University and the Kurashiki University of Science and the Arts. Ostruthin was initially dissolved in DMSO at higher concentration (100 mM) and then diluted in phosphate-buffered saline (PBS). The diluted solution was mixed vigorously for more than 10 min before the experiments, and an equal volume of DMSO was added to PBS as a control. PBS and ostruthin were administered intraperitoneally 30 min before mice behavioral tests (0.01 ml/g body weight). Each animal was used only once, except for the wheel running test, which was carried out immediately after elevated plus maze.
The elevated plus maze apparatus consisted of four arms set in a cross pattern from a neutral central square (6 × 6 cm). Two opposite arms were delimited by vertical walls (closed arms, 30 × 15 × 6 cm), whereas the other two arms had unprotected edges (open arms, 30 × 6 cm). The maze was elevated 40 cm above the floor. At the beginning of each 5 min test session, a mouse was placed in the central neutral area, facing one of the open arms. The total number of the entries to open arms and time spent in the open arms were measured. After removal of the animal, the apparatus was cleaned and wiped.

[2] = test system: depression-like behavior of mice; test: tail suspension test; type: in vivo; conditions: amlodipine experiment: single compound vs PBS, ostruthin 5 mg/kg or amlodipine 10 mg/kg, n = 9 and 13
Source text: as §1
The tail suspension test was performed in accordance with a method reported previously. The mouse was hung on a hook using adhesive tape placed 2 cm from the extremity of its tail 50 cm above the table. The amount of time spent immobile was recorded for 5 min.

[3] = target: T1, TREK-1 channel (Homo sapiens, UniProt O95069); test: whole-cell patch-clamp of TREK-1 currents in TR-1 cells (293T stably expressing TREK-1); type: cell-based; conditions: bupivacaine 3 mM, after 100 μM ostruthin
T1 construct: expressed in transfected cells
T1 sequence (O95069 1-426): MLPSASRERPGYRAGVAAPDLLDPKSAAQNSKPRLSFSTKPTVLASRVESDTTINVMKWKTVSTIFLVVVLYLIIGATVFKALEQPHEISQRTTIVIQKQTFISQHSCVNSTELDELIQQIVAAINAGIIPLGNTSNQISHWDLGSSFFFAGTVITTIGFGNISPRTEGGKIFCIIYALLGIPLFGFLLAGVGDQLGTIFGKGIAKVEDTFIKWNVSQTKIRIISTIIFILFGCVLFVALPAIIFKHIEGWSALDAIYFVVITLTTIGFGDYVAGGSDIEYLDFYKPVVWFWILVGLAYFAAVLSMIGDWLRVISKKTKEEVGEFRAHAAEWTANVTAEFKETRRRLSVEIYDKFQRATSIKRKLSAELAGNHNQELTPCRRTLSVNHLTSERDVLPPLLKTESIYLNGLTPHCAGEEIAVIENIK
Source text: (§2) For recordings of K^+ channel currents, we prepared stable cell lines for TREK-1, TWIK-related acid-sensitive K^+ channel (TASK-1), strongly inwardly rectifying K^+ channel (Kir2.1), and human ether-a-go-go-related gene (HERG-1) channels and transiently expressed other channels in 293T cells using a calcium-phosphate transfection method. For the establishment of the stable lines, we used lentiviral vectors, and the preparation methods for the lentiviral vectors were described in our previous report. TR-1 cells, which stably expressed TREK-1 channel and were grown on a small cover glass (3 × 18 mm), were placed in a recording chamber with an internal volume of 200 μl. Whole-cell currents were recorded in Tyrode solution using an Axopatch 200B amplifier (Axon Instruments, Foster City, CA) at 25°C. […] Perfusion (100 μl/min) was continued to maintain the water level throughout recordings. pH and osmotic pressure of solutions were measured with a pH meter (Horiba, Kyoto, Japan) and a freezing point osmometer (Knauer, Berlin, Germany), respectively.
We previously prepared a lentiviral vector that expressed the TREK-1 channel and using this vector we established a cell line, TR-1, which stably expressed the channel. […] Immediately after whole-cell access, small outward currents were recorded in response to depolarizing step pulses (Fig 1A, 0 min). […]

[4] = target: T2, TREK-2 channel (Homo sapiens, UniProt P57789); test: whole-cell patch-clamp of TREK-2 currents transiently expressed in 293T cells; type: cell-based; conditions: bupivacaine 3 mM, after ostruthin
T2 construct: expressed in transfected cells; host or cells: 293T (transient, calcium-phosphate transfection)
T2 sequence (P57789 1-538): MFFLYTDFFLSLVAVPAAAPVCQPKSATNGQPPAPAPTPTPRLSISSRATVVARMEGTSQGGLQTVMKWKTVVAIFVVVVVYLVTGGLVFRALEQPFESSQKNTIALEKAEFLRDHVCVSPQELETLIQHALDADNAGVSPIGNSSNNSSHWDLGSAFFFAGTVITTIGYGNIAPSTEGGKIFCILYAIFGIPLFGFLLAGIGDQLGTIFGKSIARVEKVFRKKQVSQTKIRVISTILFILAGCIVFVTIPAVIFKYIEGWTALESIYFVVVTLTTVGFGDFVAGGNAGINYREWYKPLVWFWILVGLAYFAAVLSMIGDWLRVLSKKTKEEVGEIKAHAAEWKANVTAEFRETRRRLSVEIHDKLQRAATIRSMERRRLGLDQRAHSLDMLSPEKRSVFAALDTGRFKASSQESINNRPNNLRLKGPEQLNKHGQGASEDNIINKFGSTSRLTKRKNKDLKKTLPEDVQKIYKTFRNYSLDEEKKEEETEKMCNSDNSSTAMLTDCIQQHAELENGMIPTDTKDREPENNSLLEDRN
Source text: as §2
TREK-1 channels are known to be activated by low pH and mechanical stretch. […] To test these possibilities, we measured the pH of Tyrode solution before and after addition of 100 μM ostruthin, and observed no significant change (from 7.31 ± 0.17 to 7.33 ± 0.22, p = 0.645, paired t-test, n = 6). […]

[5] = target: T2, TREK-2 channel; set-up: method as in PMID 10880510; conditions: 100 μM; cited from earlier work

CCOC(=O)C1=C(COCCN)NC(C)=C(C(=O)OC)C1c1ccccc1Cl (centres unmarked) [amlodipine, reference compound]
number of entries to the open arm [1]: non-significantly decreased | time spent immobile [2]: non-significantly decreased

CCCCN1CCCCC1C(=O)Nc1c(C)cccc1C (centres unmarked) [bupivacaine, reference compound]
inhibition of the ostruthin-increased TREK-1 current [3]: inhibited nearly completely | block of TREK-2 current [4]: almost blocked the current | sensitivity of TREK-2 channel to bupivacaine [5]: insensitive
